Patent publication US20260028356A1, “1,3,4,7-TETRAHYDRO-2H-PYRROLO[3',2':5,6]PYRIDO[2,3-B][1,4]OXAZEPINE BCL-2 INHIBITORS” (AbbVie Inc., priority 2022, published 2026)
Several values for one entry are separate records, joined by “and”; a condition that tells them apart may be missing. Equal values may be shown once.

Experiments:
[1] = system: Molt-4 cells; assay: Cell Viability Assay (CellTiter-Glo) in Molt-4 cells (counter screen); format: cell-based; conditions: 24 hours, 10% Human Serum
Procedure: (§1) The acute lymphoblastic leukemia (ALL) human cell line RS4;11 (ATCC, Manassas VA) was used as the primary human cell line to assess the cellular activity of compound of the present Examples in vitro and their efficacy in vivo. […] The acute lymphoblastic leukemia cell line Molt-4, which is derived from immature T-lymphoid cells (T-ALL), was used as a counter screen assay.
(§2) 3000 Cells (0.1×10^6/mL) were seeded in each well of 384-well plate and were treated for 24 hours in a humidified chamber with 5% CO2. Cell viability was determined by CellTiter-Glo as described by the manufacturer's instructions (Promega Corporation, Madison, WI, USA).

[2] = Bioavailability study: pharmacokinetics after single intravenous or oral dose in mouse; format: in vivo, CD-1 mice (male)
Procedure: Studies were conducted to evaluate the pharmacokinetic profiles of Example 25 herein and Example 2 in WO 2019/040550 after single intravenous or oral dose in mouse. CD-1 mice (male) were obtained from Charles River Laboratories (Wilmington, MA).
The pharmacokinetics of Example 25 herein and Example 2 in WO 2019/040550 were evaluated following single 1 mg/kg intravenous or oral doses in mouse. Example 25 herein and Example 2 in WO 2019/040550 were prepared as a solution in DMSO:Tween 80:PEG-400:Dextrose 5% in Water (5:5:20:70, v/v) for the IV and oral dose mouse studies. The intravenous dose was administered as a slow bolus to the penile vein under isoflurane anesthesia. The oral doses were administrated by gavage. Serial blood samples were obtained […], 0.25, 0.5, 1.0, 4, 6, 9, 12, 24, 32 and 48 hours post dosing and […]. Plasma was separated by centrifugation and stored frozen (<−15° C.) until analysis.
HPLC-MS/MS bioanalytical methods were utilized for the quantitation of Example 25 herein and Example 2 in WO 2019/040550 concentration in plasma. The analytical methods used protein precipitation to extract compound from plasma. All samples were combined with a minimum two volume equivalents of organic solvent containing internal standard, vortexed and then centrifuged to pellet the proteins. Supernatants were used for subsequent analysis by liquid chromatography-tandem mass spectrometry (LC-MS/MS). Studies involving quantitative analysis employed spiked standards in plasma that were processed simultaneously with the samples.
Analytes were separated using reverse phase chromatography on a C8 or C18 column prior to analysis on an API5500m (or higher) mass spectrometer with a Turbo-Ion Spray source. Peak areas were determined using Sciex Analyst™ 1.6 (or higher) software or Sound Analytics DiscoveryQuant™ 2.0 (or higher) software. Actual concentrations (when required) were calculated by regression analysis of the peak area ratio (parent/internal standard) of the spiked standards versus concentrations.
Peak plasma concentrations (Cmax) and the time to peak plasma concentration (Tmax) were determined directly from the plasma concentration data for each animal. The compound plasma concentration data were submitted to multi-exponential curve fitting using WinNonlin software. The area under the plasma concentration-time curve from 0 to t hours after dosing (AUC0-t, t=time of the last measurable plasma concentration) was calculated using the linear trapezoidal rule. The residual area extrapolated to infinity, determined as the final measured plasma concentration (Ct) divided by the terminal plasma elimination rate constant (β), was added to the AUC0-t to produce the total area under the curve (AUC0-∞). The apparent total plasma clearance (CLp) was calculated by dividing the administered dose by the AUC0-∞. Half-life (t1/2) was determined with the following calculation: t1/2=ln (2)/elimination rate constant. The initial volume of distribution (Vc) was calculated as the dose divided by the extrapolated concentration at time=0 (C0). The volume of distribution at steady state, Vss, was estimated as a product of the total plasma clearance (CLp) and the mean residence time (MRT); the terminal-phase volume of distribution, Vβ, was derived from the total plasma clearance value (CLp) divided by the terminal plasma elimination rate constant ((3). Oral bioavailability (F) was calculated as the dose-normalized AUC0-∞ (AUC0-∞/D) from the oral dose divided by the corresponding dose normalized AUC0-∞ from intravenous dosing.

[3] = system: RS4;11 cells; assay: Cell Viability Assay (CellTiter-Glo) in RS4;11 cell line; format: cell-based; conditions: 24 hours, 10% Human Serum
Procedure: as §1, §2

With C[C@H]1CCC(CNc2ccc(S(=O)(=O)NC(=O)c3ccc(N4CCN5CC6=C(c7ccc(Cl)cc7)CC(C)(C)C[C@H]6OCCCOC[C@@H]5C4)cc3N3CCCOc4nc5[nH]ccc5cc43)cc2[N+](=O)[O-])OC1 (stereo partly drawn) [Example 23, 4-((4aS,10aR)-14-(4-chlorophenyl)-12,12-dimethyl-1,2,4a,5,8,9,10a,11,13,15-decahydro-7H,12H-benzo[f]pyrazino[2,1-c][1,8]dioxa[4]azacycloundecin-3(4H)-yl)-2-(3,4-dihydro-2H-pyrrolo[3′,2′:5,6]pyrido[2,3-b][1,4]oxazepin-1(7H)-yl)-N-((4-((((2R,5S)-5-methyltetrahydro-2H-pyran-2-yl)methyl)amino)-3-nitrophenyl)sulfonyl)benzamide] the EC50 [1] was greater than 10000 nM.

In the case of CO[C@@H]1CC[C@@H](CNc2ccc(S(=O)(=O)NC(=O)c3ccc(N4CCN5CC6=C(c7ccc(Cl)cc7)CC(C)(C)C[C@H]6OCCCOC[C@@H]5C4)cc3N3CCCOc4nc5[nH]ccc5cc43)cc2[N+](=O)[O-])OC1 [Example 25, 4-((4aS,10aR)-14-(4-chlorophenyl)-12,12-dimethyl-1,2,4a,5,8,9,10a,11,13,15-decahydro-7H,12H-benzo[f]pyrazino[2,1-c][1,8]dioxa[4]azacycloundecin-3(4H)-yl)-2-(3,4-dihydro-2H-pyrrolo[3′,2′:5,6]pyrido[2,3-b][1,4]oxazepin-1(7H)-yl)-N-((4-((((2S,5R)-5-methoxytetrahydro-2H-pyran-2-yl)methyl)amino)-3-nitrophenyl)sulfonyl)benzamide], the AUC ([2]; IV 1 mg/kg, individual mouse) is reported as 11200 ng·h/mL and 12900 ng·h/mL, the CLp ([2]; IV 1 mg/kg, individual mouse) is reported as 1.28 mL/min/kg and the MRT ([2]; IV 1 mg/kg, individual mouse) is reported as 10 h. For the same compound, the Vβ ([2]; IV 1 mg/kg, individual mouse) was 1.0 L/kg and 0.90 L/kg, the AUC ([2]; PO 1 mg/kg, individual mouse) was 4330 ng·h/mL and 4490 ng·h/mL and the Tmax ([2]; PO 1 mg/kg, individual mouse) was 4.0 h. For the same compound, the t1/2 ([2]; PO 1 mg/kg, individual mouse) was 8.7 h and 10 h and the Tmax ([2]; PO 1 mg/kg, mean) was 4.0 h.

COC1(CNc2ccc(S(=O)(=O)NC(=O)c3ccc(N4CCN5CC6=C(c7ccc(Cl)cc7)CC(C)(C)C[C@H]6OCCCOC[C@@H]5C4)cc3N3CCCOc4nc5[nH]ccc5cc43)cc2[N+](=O)[O-])CCOCC1 [Example 26, 4-((4aS,10aR)-14-(4-chlorophenyl)-12,12-dimethyl-1,2,4a,5,8,9,10a,11,13,15-decahydro-7H,12H-benzo[f]pyrazino[2,1-c][1,8]dioxa[4]azacycloundecin-3(4H)-yl)-2-(3,4-dihydro-2H-pyrrolo[3′,2′:5,6]pyrido[2,3-b][1,4]oxazepin-1(7H)-yl)-N-((4-(((4-methoxytetrahydro-2H-pyran-4-yl)methyl)amino)-3-nitrophenyl)sulfonyl)benzamide] showed an EC50 [1] greater than 10000 nM.

With CC1(C)CC(c2ccc(Cl)cc2)=C2CN3CCN(c4ccc(C(=O)NS(=O)(=O)c5ccc(NC[C@@H]6CC[C@@H](O)CO6)c([N+](=O)[O-])c5)c(N5CCCOc6nc7[nH]ccc7cc65)c4)C[C@H]3COCCCO[C@@H]2C1 [Example 27, 4-((4aS,10aR)-14-(4-chlorophenyl)-12,12-dimethyl-1,2,4a,5,8,9,10a,11,13,15-decahydro-7H,12H-benzo[f]pyrazino[2,1-c][1,8]dioxa[4]azacycloundecin-3(4H)-yl)-2-(3,4-dihydro-2H-pyrrolo[3′,2′:5,6]pyrido[2,3-b][1,4]oxazepin-1(7H)-yl)-N-((4-((((2S,5R)-5-hydroxytetrahydro-2H-pyran-2-yl)methyl)amino)-3-nitrophenyl)sulfonyl)benzamide] the EC50 [3] was 0.329 nM and the EC50 [1] was 535 nM.
